Each block holds one molecule with its values, some of them ahead of it.
Test system: 958667-338-R-J2-PDC tumor spheroids viability
Assay: Anticancer human tumor 958667-338-R-J2-PDC patient-derived colon adenocarcinoma cell line growth inhibition [PI3K]
Conditions: spheroids with HUVEC and MSC; for viability, T/C: stronger effect = lower value
In short: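 Combination activity was assessed by viability in multicellular tumor spheroids carrying HUVEC and MSC components. Agents were tested with PI3K inhibitors from a Cmax-based top dose (or 10 microM) downward in half-log increments.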

[1] = curve of first compound, second compound 0.0316 µM
[2] = curve of first compound, second compound 0.1 µM
[3] = curve of first compound, second compound 0.316 µM
[4] = curve of first compound, second compound 1 µM
[5] = second compound 0.0316 µM, first compound 0.0316 µM
[6] = second compound 0.0316 µM, first compound 0.1 µM
[7] = second compound 0.1 µM, first compound 0.0316 µM
[8] = second compound 0.1 µM, first compound 0.1 µM
[9] = second compound 0.316 µM, first compound 0.0316 µM
[10] = second compound 0.316 µM, first compound 0.1 µM
[11] = second compound 1 µM, first compound 0.0316 µM
[12] = second compound 1 µM, first compound 0.1 µM
[13] = curve of first compound, second compound 0.00316 µM
[14] = curve of first compound, second compound 0.01 µM
[15] = second compound 0.00316 µM, first compound 0.0316 µM
[16] = second compound 0.00316 µM, first compound 0.1 µM
[17] = second compound 0.00316 µM, first compound 0.316 µM
[18] = second compound 0.00316 µM, first compound 1 µM
[19] = second compound 0.00316 µM, first compound 3.16 µM
[20] = second compound 0.00316 µM, first compound 10 µM
[21] = second compound 0.01 µM, first compound 0.0316 µM
[22] = second compound 0.01 µM, first compound 0.1 µM
[23] = second compound 0.01 µM, first compound 0.316 µM
[24] = second compound 0.01 µM, first compound 1 µM
[25] = second compound 0.01 µM, first compound 3.16 µM
[26] = second compound 0.01 µM, first compound 10 µM
[27] = second compound 0.0316 µM, first compound 0.316 µM
[28] = second compound 0.0316 µM, first compound 1 µM
[29] = second compound 0.0316 µM, first compound 3.16 µM
[30] = second compound 0.0316 µM, first compound 10 µM
[31] = second compound 0.1 µM, first compound 0.316 µM
[32] = second compound 0.1 µM, first compound 1 µM
[33] = second compound 0.1 µM, first compound 3.16 µM
[34] = second compound 0.1 µM, first compound 10 µM
[35] = second compound 0.316 µM, first compound 0.316 µM
[36] = second compound 0.316 µM, first compound 1 µM
[37] = second compound 0.316 µM, first compound 3.16 µM
[38] = second compound 0.316 µM, first compound 10 µM
[39] = second compound 1 µM, first compound 0.316 µM
[40] = second compound 1 µM, first compound 1 µM
[41] = second compound 1 µM, first compound 3.16 µM
[42] = second compound 1 µM, first compound 10 µM
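Also: spheroids exposed to compounds for seven days before readout.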

IC50 [1]: > 100 nM
IC50 [2]: > 100 nM
IC50 [3]: > 100 nM
IC50 [4]: > 100 nM
IC50 (curve of first compound, second compound 3.16 µM): > 100 nM
IC50 (curve of first compound, second compound 10 µM): > 100 nM
Compound: CC(=O)c1c(C)c2cnc(Nc3ccc(N4CCNCC4)cn3)nc2n(C2CCCC2)c1=O + CC(Nc1ncnc2nc[nH]c12)c1cc2cccc(Cl)c2c(=O)n1-c1ccccc1
viability, T/C (second compound 0.0316 µM, first compound 0.000316 µM): 106%
viability, T/C (second compound 0.0316 µM, first compound 0.001 µM): 101%
viability, T/C (second compound 0.0316 µM, first compound 0.00316 µM): 95.3%
viability, T/C (second compound 0.0316 µM, first compound 0.01 µM): 117%
viability, T/C [5]: 90.2%
viability, T/C [6]: 91.6%
viability, T/C (second compound 0.1 µM, first compound 0.000316 µM): 117%
viability, T/C (second compound 0.1 µM, first compound 0.001 µM): 103%
viability, T/C (second compound 0.1 µM, first compound 0.00316 µM): 89.2%
viability, T/C (second compound 0.1 µM, first compound 0.01 µM): 96.8%
viability, T/C [7]: 105%
viability, T/C [8]: 74.4%
viability, T/C (second compound 0.316 µM, first compound 0.000316 µM): 98.6%
viability, T/C (second compound 0.316 µM, first compound 0.001 µM): 89.5%
viability, T/C (second compound 0.316 µM, first compound 0.00316 µM): 91.3%
viability, T/C (second compound 0.316 µM, first compound 0.01 µM): 103%
viability, T/C [9]: 118%
viability, T/C [10]: 83.1%
viability, T/C (second compound 1 µM, first compound 0.000316 µM): 99.3%
viability, T/C (second compound 1 µM, first compound 0.001 µM): 126%
viability, T/C (second compound 1 µM, first compound 0.00316 µM): 95.4%
viability, T/C (second compound 1 µM, first compound 0.01 µM): 106%
viability, T/C [11]: 104%
viability, T/C [12]: 87.9%
viability, T/C (second compound 3.16 µM, first compound 0.000316 µM): 108%
viability, T/C (second compound 3.16 µM, first compound 0.001 µM): 71.5%
viability, T/C (second compound 3.16 µM, first compound 0.00316 µM): 118%
viability, T/C (second compound 3.16 µM, first compound 0.01 µM): 97.5%
viability, T/C (second compound 3.16 µM, first compound 0.0316 µM): 97%
viability, T/C (second compound 3.16 µM, first compound 0.1 µM): 95.7%
viability, T/C (second compound 10 µM, first compound 0.000316 µM): 103%
viability, T/C (second compound 10 µM, first compound 0.001 µM): 79.5%
viability, T/C (second compound 10 µM, first compound 0.00316 µM): 95%
viability, T/C (second compound 10 µM, first compound 0.01 µM): 101%
viability, T/C (second compound 10 µM, first compound 0.0316 µM): 90.4%
viability, T/C (second compound 10 µM, first compound 0.1 µM): 67.6%

IC50 [13]: 3330 nM
IC50 [14]: 1980 nM
IC50 [1]: 3720 nM
IC50 [2]: 1400 nM
IC50 [3]: < 31.6 nM
IC50 [4]: < 31.6 nM
Compound: CC1(C)CCC(Nc2ncc(C(F)(F)F)c(-c3c[nH]c4c(P(C)(C)=O)c(C#N)ccc34)n2)CN1 (stereo not drawn) + COc1c(OCCCN2CCOCC2)ccc2c3n(c(=NC(=O)c4cnc(N)nc4)nc12)CCN3
viability, T/C [15]: 90%
viability, T/C [16]: 94.7%
viability, T/C [17]: 71.1%
viability, T/C [18]: 55.7%
viability, T/C [19]: 66.4%
viability, T/C [20]: 22.9%
viability, T/C [21]: 105%
viability, T/C [22]: 85.8%
viability, T/C [23]: 68.2%
viability, T/C [24]: 59.8%
viability, T/C [25]: 58.7%
viability, T/C [26]: 19.4%
viability, T/C [5]: 72.5%
viability, T/C [6]: 71.5%
viability, T/C [27]: 65.9%
viability, T/C [28]: 55%
viability, T/C [29]: 60.4%
viability, T/C [30]: 20.9%
viability, T/C [7]: 69%
viability, T/C [8]: 71.9%
viability, T/C [31]: 48.2%
viability, T/C [32]: 53.7%
viability, T/C [33]: 44.8%
viability, T/C [34]: 4.88%
viability, T/C [9]: 46.3%
viability, T/C [10]: 42.9%
viability, T/C [35]: 36.8%
viability, T/C [36]: 39.5%
viability, T/C [37]: 25.6%
viability, T/C [38]: 1.02%
viability, T/C [11]: 19.9%
viability, T/C [12]: 16.8%
viability, T/C [39]: 14.9%
viability, T/C [40]: 15.8%
viability, T/C [41]: 10.2%
viability, T/C [42]: 1.04%

IC50 [13]: 4620 nM
IC50 [14]: 2800 nM
IC50 [1]: 2550 nM
IC50 [2]: 4670 nM
IC50 [3]: 1680 nM
IC50 [4]: 1640 nM
Compound: CC1(C)CCC(Nc2ncc(C(F)(F)F)c(-c3c[nH]c4c(P(C)(C)=O)c(C#N)ccc34)n2)CN1 (stereo not drawn) + CC(Nc1ccc2c(c1)OCCn1cc(N3C(=O)OCC3C(F)F)nc1-2)C(N)=O
viability, T/C [15]: 108%
viability, T/C [16]: 85.9%
viability, T/C [17]: 79.7%
viability, T/C [18]: 75.2%
viability, T/C [19]: 67.8%
viability, T/C [20]: 29.5%
viability, T/C [21]: 135%
viability, T/C [22]: 109%
viability, T/C [23]: 76.9%
viability, T/C [24]: 63.2%
viability, T/C [25]: 67.6%
viability, T/C [26]: 20.1%
viability, T/C [5]: 111%
viability, T/C [6]: 108%
viability, T/C [27]: 58.2%
viability, T/C [28]: 60.7%
viability, T/C [29]: 64.6%
viability, T/C [30]: 25.7%
viability, T/C [7]: 95.2%
viability, T/C [8]: 78.6%
viability, T/C [31]: 71.5%
viability, T/C [32]: 75.8%
viability, T/C [33]: 66.8%
viability, T/C [34]: 24.3%
viability, T/C [9]: 78.7%
viability, T/C [10]: 78.7%
viability, T/C [35]: 53.1%
viability, T/C [36]: 54%
viability, T/C [37]: 55.9%
viability, T/C [38]: 26.2%
viability, T/C [11]: 86.9%
viability, T/C [12]: 66.8%
viability, T/C [39]: 67.2%
viability, T/C [40]: 52.8%
viability, T/C [41]: 50.8%
viability, T/C [42]: 14.3%

IC50 (curve of compound): > 10000 nM
Compound: CC(Cn1ccc(-c2ccc(C#N)c(Cl)c2)n1)NC(=O)c1cc(C(C)O)[nH]n1 (stereo not drawn)
viability, T/C (compound 0.0316 µM): 105% [middle of 4 runs]
viability, T/C (compound 0.1 µM): 92.6% [middle of 4 runs]
viability, T/C (compound 0.316 µM): 111% [middle of 4 runs]
viability, T/C (compound 1 µM): 104% [middle of 4 runs]
viability, T/C (compound 3.16 µM): 107% [middle of 4 runs]
viability, T/C (compound 10 µM): 89.4% [middle of 4 runs]

From PubChem BioAssay AID1963963 (Molecular Pharmacology Branch, DTP, NCI, 2024)
